The subject of data set [1] is MSTO-211H-Luc cells. Briefly: Tumor growth inhibition by intrathoracic TS-lipoplex and TS-preplex in orthotopic models (Example 11). To be noted: IVIS 18 days after implantation; 20 μg shRNA intrathoracic x5; PMX 25 mg/kg i.p. x10. The class given is in vivo, mouse. As for the experimental part:
Orthotopic implantation models of malignant pleural mesothelioma using the MSTO-211H-Luc cells were prepared by the method described in Example 4, and the mice 4 days after implantation were subjected to the in vivo experiment.
The TS-lipoplex or TS-preplex was administered directly into the thoracic cavity 4, 7, 10, 13, and 16 days after the tumor implantation, so that 20 μg (50 μl) of shRNA would be administered.
When an existing chemotherapeutic agent (Alimta; pemetrexed sodium hydrate (PMX), Eli Lilly) was used in combination, a dose of 25 mg/kg was intraperitoneally administered every day from 4 days to 8 days after the tumor implantation, the same amount of the agent was intraperitoneally administered after an interval of 2 days every day from 11 days to 15 days after the tumor implantation, and administration was carried out 10 times in total.
Two days after the final administration of the TS-lipoplex or TS-preplex (i.e., 18 days after the tumor implantation), 100 μl of a D-luciferin potassium salt solution (7.5 mg/ml) was administered intraperitoneally under anesthesia with isoflurane, and the bioluminescence levels depending on luciferase activity in the MSTO-211H-Luc cells that had grown in the thoracic cavity were evaluated using IVIS (Xenogen, Alameda, Calif., U.S.A.).

Data set [2] concerns MSTO-211H-Luc cells. Briefly: Tumor growth inhibition by intrathoracic TS-shRNA lipoplex in orthotopic mouse models of malignant pleural mesothelioma (Example 8). It counts as in vivo. To be noted: compared with control; IVIS 21 days after implantation; lipoplex 20 μg shRNA intrathoracic x6; PMX 25 mg/kg i.p. x10. Here is the method: Orthotopic implantation mouse models of malignant pleural mesothelioma using the MSTO-211H-Luc cells were prepared by the method described in Example 3, and mice in which implanted cells had been sufficiently fixed 7 days after implantation were subjected to in vivo experiment.
The TS-shRNA lipoplex or NS-shRNA lipoplex was directly administered into the thoracic cavity of a mouse carrying MSTO-211H-Luc cells every other day from 7 days to 17 days after the tumor implantation, and administration was carried out 6 times in total. A dose was 20 μg of shRNA/100 μl. […]
As described in Example 5, carcinostatic activity (i.e., cell growth inhibitory activity) was evaluated by implanting MSTO-211H-Luc cells, administering 100 μl of a D-luciferin potassium salt solution (7.5 mg/ml) intraperitoneally under anesthesia with isoflurane 21 days after implantation, and evaluating the bioluminescence levels depending on activity of the MSTO-211H-Luc cells that had grown in the thoracic cavity using IVIS (Xenogen, Alameda, Calif., U.S.A.).

For the next data set, the system named is TS gene. Briefly: TS gene expression in collected tumor cells, quantitative RT-PCR (Example 9). The class given is in vivo, human. The following applies: tumor cells collected 21 days after implantation; compared with control; GAPDH internal standard. Here is the method:
Mice of the groups subjected to the treatment in the same manner as in Example 8 were subjected to evaluation via IVIS 21 days after the implantation of the MSTO-211H-Luc cells, mice were sacrificed, tumor cells were collected from the thoracic cavity, and the inhibition of TS gene expression in the collected tumor cells was evaluated via quantitative RT-PCR.
RNA was extracted from tumor cells using the RNaqueous-micro kit (Ambion, Austin, Tex., U.S.A.) in accordance with the method recommended by the manufacturer. Reverse transcription of RNA into cDNA was carried out with the addition of Oligo (dT)20, dNTP, RNase inhibitor, and ReverTra Ace (Toyobo, Osaka, Japan) to RNA. Real-time PCR was carried out using the StepOnePlus real-time PCR system (Applied Biosystems, CA, U.S.A.), the reversely-transcribed cDNA as the template, and FastStart TaqMan Probe Master (ROX) and Universal ProbeLibrary (Roche Diagnostics GmbH, Manheim, Germany) as reagents, in accordance with the method recommended by the manufacturer. GAPDH was used as the internal standard.

Data set [3] deals with human malignant pleural mesothelioma cells (MSTO-211H). As to the kind of experiment: MTT assay, cell growth after shRNA transfection with or without PMX. The class given is cell-based. The following applies: shRNA 5 or 10 nM with Lf RNAi MAX; in the presence of PMX 0.01 μg/ml; 0-96 hours. As for the experimental part: This experiment was carried out on a 96-well plate scale. Transfection was carried out using Lipofectamine® RNAi MAX (hereafter referred to as “Lf RNAi MAX”), which is a cationic liposome, in accordance with the manufacturer's instructions.
shRNA (300 pmol of TS-shRNA or NS-shRNA) and 15 μl of Lf RNAi MAX were separately diluted with OptiMEM to prepare solutions (500 n1 each), the resulting solutions were mixed with each other, and the mixture was allowed to stand at room temperature for 10 to 20 minutes to form a complex (i.e., a lipoplex). A suspension of human malignant pleural mesothelioma cells (MSTO-211H) (2,000 cells/100 n1) was added to wells, 50 μl of lipoplex was added thereto 24 hours thereafter, and the final total volume was adjusted to 150 μl (the final shRNA concentration in the wells was adjusted to 5 nM or 10 nM). The medium was removed 24 hours after the initiation of transfection, and 200 μl of a fresh medium containing or not containing an existing cancer chemotherapeutic agent (“Alimta,” pemetrexed sodium hydrate, PMX, Eli Lilly) at 0.01 μg/ml was added thereto. The medium was removed 0, 24, 48, 72, and 96 hours after the addition of the fresh medium. […]
After the completion of incubation, acidic isopropanol (150 μl) was added to each well. […] Absorbance was determined at a wavelength of 570 nm using a plate reader. […]

The values below come from US9745583B2, “Liposome for topical administration and application thereof” (DELTA-FLY PHARMA, INC., priority 2013, dated 2017).

For `Nc1nc2[nH]cc(CCc3ccc(C(=O)N[C@@H](CCC(=O)O)C(=O)O)cc3)c2c(=O)[nH]1` [PMX, pemetrexed sodium hydrate], the “tumor growth inhibitory effects” value in the data set on MSTO-211H-Luc cells [1] is “insignificant”; in the data set with MSTO-211H-Luc cells [2] it was “about 50%”. Also, in the data set with TS gene, the “TS gene inhibitory effects (TS mRNA)” value is listed as “about 25%”.

As for “TS-shRNA: TS-targeting shRNA, SEQ ID NO: 8 (GUAACACCAUCGAUCAUGAUAGUGCUCCUGGUUGUCAUGAUCGAUGGUGUUACUU; siRNA; shRNA hairpin, further chemistry not given here)”, the “growth of MSTO-211H cells (cell growth rate, MTT)” value in data set [3] is reported as “inhibited the growth of MSTO-211H cells to a significant extent”.
